From patent US20060171966A1, “Variants of vibrio cholerae 01 biotype e1 tor with attributes of classical biotype” (priority 2002, published 2006)

Assays:
Type in all cases: cell-based, Vibrio cholerae O1
V. cholerae O1 Matlab I = test: Sensitivity to polymyxin B (50U), Matlab I; details: 2 strains
Source text: (§1) […]. The basis of a retrospective examination of these strains was their unusual response to polymyxin B (50U), chicken cell agglutination (CCA), Voges-Proskauer (VP) reaction, and sensitivity to group IV and V phages, all of which are phenotypic traits commonly used to differentiate between the classical and El Tor biotypes. The 24 strains were reexamined for the above phenotypic characteristics by standard procedures.
(§2) We examined the commonly used phenotypic traits used to distinguish between the El Tor and classical biotypes of V. cholerae and differentiated the 24 strains into three types (Table 1), which we classified as Matlab types I, II, and III. Matlab type I included two strains belonging to the Inaba serotype that were resistant to both the El Tor-specific group IV and the classical biotype specific group V phages, negative by the CCA and VP tests (both are classical traits), and resistant to polymyxin B (an El Tor trait).

V. cholerae O1 Matlab II = test: Sensitivity to polymyxin B (50U), Matlab II; details: 1 strain
Source text: as §1, §2

[1] = tested on: V. cholerae O1 Matlab III; test: Sensitivity to polymyxin B (50U), Matlab III; details: 21 strains
Source text: as §1, §2

polymyxin B was tested, and the “Sensitivity to polymyxin B (50U)” value (V. cholerae O1 Matlab I) was “resistant”, the “Sensitivity to polymyxin B (50U)” value (V. cholerae O1 Matlab II) was “sensitive” and the “Sensitivity to polymyxin B (50U)” value [1] was “typical of the El Tor biotype”.
